Our source for the IC50 values is patent US20230250070A1, “DIHYDROOXAZOLE AND THIOUREA DERIVATIVES MODULATING THE NLRP3 INFLAMMASOME PATHWAY” (AC IMMUNE SA, priority 2020, published 2023).

The IC50 is the concentration at which inhibition is half-maximal. The low end stands for inhibition by little substance, the high end for a need for much substance.

For this test, the system named is NLRP3 inflammasome pathway. The experiment in a line: NLRP3 inflammasome pathway activation assay, MSU stimulation, IL-1β release (AlphaLISA). The class given is cell-based. To be noted: PMA-differentiated, LPS-primed human monocyte-like cells, MSU 150 µg/ml for 3 h. The method, then:
The following assays were used to determine the inhibitory activity of test compounds on the NLRP3 inflammasome pathway using common stimuli Nigericin (Invivogen) or monosodium urate crystals (MSU) (Invivogen).
Human monocyte-like cells were cultured in RPMI-1640 Glutamax medium supplemented with 10% heat inactivated FCS and 50 U/ml penicillin-streptomycin (Life Technologies).
Human monocyte-like cells were seeded at 75000 per well in a 96-well plate and were differentiated overnight into macrophages with 10 ng/ml PMA (Phorbol Myristate Acetate). The following day, medium containing 10 ng/ml LPS (Lipopolysaccharide) were added. After 3 hours of LPS priming, concentrations of test compound in the range from 100 µM to 6 nM were added 30 min prior to NLRP3 inflammasome pathway stimulation with Nigericin 3.75 µM or MSU 150 µg/ml for 3 h.
For IL-1β quantification, supernatants were analyzed using AlphaLISA kits according to the manufacturer’s instructions (Perkin Elmer AlphaLISA AL220F). Briefly, in a 384-well OptiPlate™ microplate, 5 µl of sample was mixed, with 20 µl of AlphaLISA Anti-Analyte Acceptor beads (10 µg/mL final) and Biotinylated Antibody Anti-Analyte (1 nM final). Then, incubated 60 minutes at RT, then 25 µL of 2X SA-Donor beads (40 µg/mL final) were added and incubated 30 minutes at RT in the dark. Reading was done using an EnVision-Alpha Reader (PerkinElmer).
IC50(concentration corresponding to 50% inhibition) were determined using GraphPad Prism 8.
Consider `CC(C)OC(=O)C1(c2cc(C(C)(C)O)on2)CN=C(Nc2c3c(cc4c2CCC4)CCC3)O1` (racemic) [Example 17, isopropyl 2-((1,2,3,5,6,7-hexahydro-s-indacen-4-yl)amino)-5-(5-(2-hydroxypropan-2-yl)isoxazol-3-yl)-4,5-dihydrooxazole-5-carboxylate], for which the half-maximal inhibitory concentration (IC50) was less than 1 µM.
The value for `CC(C)(O)c1cc(C2(C(=O)OC3CCCC3)CN=C(Nc3c4c(cc5c3CCC5)CCC4)O2)no1` (racemic) [Example 19, cyclopentyl 2-((1,2,3,5,6,7-hexahydro-s-indacen-4-yl)amino)-5-(5-(2-hydroxypropan-2-yl)isoxazol-3-yl)-4,5-dihydrooxazole-5-carboxylate] was less than 1 µM; that for `CCOC(=O)C1(c2cc(C(C)C)on2)CN=C(Nc2c3c(cc4c2CCC4)CCC3)O1` (racemic) [Example 21A, ethyl 2-((1,2,3,5,6,7-hexahydro-s-indacen-4-yl)amino)-5-(5-isopropylisoxazol-3-yl)-4,5-dihydrooxazole-5-carboxylate] was less than 1 µM; that for `CCOC(=O)C1(c2ccon2)CN=C(Nc2c3c(cc4c2CCC4)CCC3)O1` (racemic) [Example 21B, ethyl 2-((1,2,3,5,6,7-hexahydro-s-indacen-4-yl)amino)-5-(isoxazol-3-yl)-4,5-dihydrooxazole-5-carboxylate] was less than 1 µM.
The value for `CC(C)c1cc(C2(C(=O)O)CN=C(Nc3c4c(cc5c3CCC5)CCC4)O2)no1` (racemic) [Example 27, 2-((1,2,3,5,6,7-hexahydro-s-indacen-4-yl)amino)-5-(5-isopropylisoxazol-3-yl)-4,5-dihydrooxazole-5-carboxylate] was 1 to 10 µM; that for `CCOC(=O)C1(c2cnc(OC)nc2)CN=C(Nc2c3c(cc4c2CCC4)CCC3)O1` (racemic) [Example 32, ethyl 2-((1,2,3,5,6,7-hexahydro-s-indacen-4-yl)amino)-5-(2-methoxypyrimidin-5-yl)-4,5-dihydrooxazole-5-carboxylate] was less than 1 µM; that for `CCOC(=O)C1(c2cccs2)CN=C(Nc2c3c(cc4c2CCC4)CCC3)O1` (racemic) [Example 34, ethyl 2-((1,2,3,5,6,7-hexahydro-s-indacen-4-yl)amino)-5-(thiophen-2-yl)-4,5-dihydrooxazole-5-carboxylate] was 1 to 10 µM.
The value for `CCOC(=O)C1(c2ccco2)CN=C(Nc2c3c(cc4c2CCC4)CCC3)O1` (racemic) [Example 36, ethyl 5-(furan-2-yl)-2-((1,2,3,5,6,7-hexahydro-s-indacen-4-yl)amino)-4,5-dihydrooxazole-5-carboxylate] was 1 to 10 µM.
For the molecule `CCOC(=O)C1(c2nccn2C)CN=C(Nc2c3c(c(F)c4c2CCC4)CCC3)O1` (racemic) [Example 37, ethyl 2-((8-fluoro-1,2,3,5,6,7-hexahydro-s-indacen-4-yl)amino)-5-(1-methyl-1H-imidazol-2-yl)-4,5-dihydrooxazole-5-carboxylate], the IC50 was less than 1 µM.
The value for `CCOC(=O)C1(C2CCCO2)CN=C(Nc2c3c(cc4c2CCC4)CCC3)O1` (racemic) [Example 40, ethyl 2-((1,2,3,5,6,7-hexahydro-s-indacen-4-yl)amino)-5-(tetrahydrofuran-2-yl)-4,5-dihydrooxazole-5-carboxylate] was less than 1 µM; that for `CCOC(=O)C1(c2ccno2)CN=C(Nc2c3c(cc4c2CCC4)CCC3)O1` (racemic) [Example 44, ethyl 2-((1,2,3,5,6,7-hexahydro-s-indacen-4-yl)amino)-5-(isoxazol-5-yl)-4,5-dihydrooxazole-5-carboxylate] was less than 1 µM.
The value for `COC(=O)C1(c2cc(OC)on2)CN=C(Nc2c3c(cc4c2CCC4)CCC3)O1` (racemic) [Example 48, methyl 2-((1,2,3,5,6,7-hexahydro-s-indacen-4-yl)amino)-5-(5-methoxyisoxazol-3-yl)-4,5-dihydrooxazole-5-carboxylate] was less than 1 µM; that for `CCOC(=O)C1(c2cnccn2)CN=C(Nc2c3c(cc4c2CCC4)CCC3)O1` (racemic) [Example 49, ethyl 2-((1,2,3,5,6,7-hexahydro-s-indacen-4-yl)amino)-5-(pyrazin-2-yl)-4,5-dihydrooxazole-5-carboxylate] was less than 1 µM.
`CCOC(=O)C1(c2ccn(C(C)C)n2)CN=C(Nc2c3c(cc4c2CCC4)CCC3)O1` (racemic) [Example 54, ethyl 2-((1,2,3,5,6,7-hexahydro-s-indacen-4-yl)amino)-5-(1-isopropyl-1 H-pyrazol-3-yl)-4,5-dihydrooxazole-5-carboxylate] returned a 50% inhibitory concentration (IC50) of less than 1 µM.
The value for `CCOC(=O)C1(c2nc(C(C)C)cs2)CN=C(Nc2c3c(cc4c2CCC4)CCC3)O1` (racemic) [Example 55, ethyl 2-((1,2,3,5,6,7-hexahydro-s-indacen-4-yl)amino)-5-(4-isopropylthiazol-2-yl)-4,5-dihydrooxazole-5-carboxylate] was less than 1 µM; that for `CC(C)(C)OC(=O)C1(c2ccon2)CN=C(Nc2c3c(cc4c2CCC4)CCC3)O1` (racemic) [Example 60, tert-butyl 2-((1,2,3,5,6,7-hexahydro-s-indacen-4-yl)amino)-5-(isoxazol-3-yl)-4,5-dihydrooxazole-5-carboxylate] was less than 1 µM; that for `COC(=O)C1(c2nccs2)CN=C(Nc2c3c(cc4c2CCC4)CCC3)O1` (racemic) [Example 62, methyl 2-((1,2,3,5,6,7-hexahydro-s-indacen-4-yl)amino)-5-(thiazol-2-yl)-4,5-dihydrooxazole-5-carboxylate] was less than 1 µM.
Molecule `CCCOC(=O)C1(c2nccs2)CN=C(Nc2c3c(cc4c2CCC4)CCC3)O1` (racemic) [Example 65, propyl 2-((1,2,3,5,6,7-hexahydro-s-indacen-4-yl)amino)-5-(thiazol-2-yl)-4,5-dihydrooxazole-5-carboxylate] gave a 50% inhibitory concentration (IC50) of less than 1 µM.
The value for `CCCCOC(=O)C1(c2nccs2)CN=C(Nc2c3c(cc4c2CCC4)CCC3)O1` (racemic) [Example 67, butyl 2-((1,2,3,5,6,7-hexahydro-s-indacen-4-yl)amino)-5-(thiazol-2-yl)-4,5-dihydrooxazole-5-carboxylate] was less than 1 µM; that for `CCCOC(=O)C1(c2cc(C(C)(C)O)on2)CN=C(Nc2c3c(cc4c2CCC4)CCC3)O1` (racemic) [Example 74, propyl 2-((1,2,3,5,6,7-hexahydro-s-indacen-4-yl)amino)-5-(5-(2-hydroxypropan-2-yl)isoxazol-3-yl)-4,5-dihydrooxazole-5-carboxylate] was less than 1 µM.
The value for `CCCCOC(=O)C1(c2cc(C(C)(C)O)on2)CN=C(Nc2c3c(cc4c2CCC4)CCC3)O1` (racemic) [Example 76, butyl 2-((1,2,3,5,6,7-hexahydro-s-indacen-4-yl)amino)-5-(5-(2-hydroxypropan-2-yl)isoxazol-3-yl)-4,5-dihydrooxazole-5-carboxylate] was less than 1 µM; that for `CCCCCOC(=O)C1(c2cc(C(C)(C)O)on2)CN=C(Nc2c3c(cc4c2CCC4)CCC3)O1` (racemic) [Example 79, pentyl 2-((1,2,3,5,6,7-hexahydro-s-indacen-4-yl)amino)-5-(5-(2-hydroxypropan-2-yl)isoxazol-3-yl)-4,5-dihydrooxazole-5-carboxylate] was less than 1 µM.
Molecule `CC(C)(C)OC(=O)C1(c2cc(C(C)(C)O)on2)CN=C(Nc2c3c(cc4c2CCC4)CCC3)O1` (racemic) [Example 82, tert-butyl 2-((1,2,3,5,6,7-hexahydro-s-indacen-4-yl)amino)-5-(5-(2-hydroxypropan-2-yl)isoxazol-3-yl)-4,5-dihydrooxazole-5-carboxylate] returned an IC50 of less than 1 µM.
The value for `COC(=O)C1(c2ccon2)CN=C(Nc2c3c(cc4c2CCC4)CCC3)O1` (racemic) [Example 84, methyl 2-((1,2,3,5,6,7-hexahydro-s-indacen-4-yl)amino)-5-(isoxazol-3-yl)-4,5-dihydrooxazole-5-carboxylate] was less than 1 µM; that for `COC(=O)C1(c2ccno2)CN=C(Nc2c3c(cc4c2CCC4)CCC3)O1` (racemic) [Example 87, methyl 2-((1,2,3,5,6,7-hexahydro-s-indacen-4-yl)amino)-5-(isoxazol-5-yl)-4,5-dihydrooxazole-5-carboxylate] was less than 1 µM; that for `CCCCCOC(=O)C1(c2ccno2)CN=C(Nc2c3c(cc4c2CCC4)CCC3)O1` (racemic) [Example 92, pentyl 2-((1,2,3,5,6,7-hexahydro-s-indacen-4-yl)amino)-5-(isoxazol-5-yl)-4,5-dihydrooxazole-5-carboxylate] was less than 1 µM.
The value for `CCOC(=O)C1(c2nccs2)CN=C(Nc2c3c(cc4c2CCC4)CCC3)O1` (single isomer, unassigned) [Example 21, ethyl 2-((1,2,3,5,6,7-hexahydro-s-indacen-4-yl)amino)-5-(thiazol-2-yl)-4,5-dihydrooxazole-5-carboxylate] was less than 1 µM; that for `CCOC(=O)C1(c2ccns2)CN=C(Nc2c3c(cc4c2CCC4)CCC3)O1` (single isomer, unassigned) [Example 43, ethyl 2-((1,2,3,5,6,7-hexahydro-s-indacen-4-yl)amino)-5-(isothiazol-5-yl)-4,5-dihydrooxazole-5-carboxylate] was less than 1 µM.
